These are literature values, as cited in patent US20050142123A1, “Water-dispersible coenzyme q10 dry powders” (priority 2002, published 2005).

The conditions of series [1]: administered orally.

Consider `COC1=C(OC)C(=O)C(CC=C(C)CCC=C(C)CCC=C(C)CCC=C(C)CCC=C(C)CCC=C(C)CCC=C(C)CCC=C(C)CCC=C(C)CCC=C(C)C)=C(C)C1=O` [Coenzyme Q-10, 6-Decaprenyl-2,3-dimethoxy-5-methyl-1,4-benzoquinone], for which the solubility in water entry was “practically insoluble in water”. Also, in series [1], the bioavailability result is given as “poor”.
